Laboratory results taken from patent US20050203164A1, “Use of acylaminoalkenylene-amide derivatives in functional motility disorders of the viscera” (priority 2002, published 2005).
No end group written: not given here.

What was measured:
[1] = test system: conscious guinea pigs; test: restraint stress-induced visceral hypersensitivity, visceromotor response to colorectal distension; format: in vivo, guinea pig; settings: restraint stress-induced colonic hypersensitivity, p<0.05 ANOVA post-hoc Dunnett's test
Experimental: (§1) In conscious guinea pigs, two experimental paradigms are applied to induce visceral hypersensitivity, i) restraint stress (immobilization of the animals in a tube) and ii) colonic tissue irritation (colonic instillation of acetic acid, 0.6% in saline, 1.5 ml, 2 cm proximal to the anus). Colorectal distension is performed by inflating a balloon to a net pressure (at the colonic wall) of 20 mmHg (26.7 mbar) for 10 minutes before and following induction of visceral hypersensitivity. During the distension period the visceromotor response, i.e. the number and quality of abdominal contractions (body arching and lifting of pelvic structures) are recorded and quantified in a blinded fashion (Al-Chaer et al., Gastroenterology 2000; 119: 1276-1285). Following the performance of baseline colorectal distension protocols, vehicle or the compound of formula II (3 and 10 mg/kg) are dosed orally one hour prior to the second colorectal distensions, which are done after the induction of visceral hypersensitivity. The effects of vehicle and the compound of formula II are assessed in 6-8 animals. […] The compound of formula II reverses the exaggerated behavioural pain responses upon colorectal balloon distensions in both restraint stress-induced and tissue irritation-induced colonic hypersensitivity.

[2] = test system: conscious guinea pigs; test: colonic tissue irritation (acetic acid)-induced visceral hypersensitivity, visceromotor response to colorectal distension; format: in vivo, guinea pig; settings: p<0.05 ANOVA post-hoc Dunnett's test
Experimental: as §1

[3] = test system: isolated segments of guinea pig ileum; test: Substance P-mediated exaggerated peristalsis in organ baths (peristaltic reflex model); format: cell-based
Source text: Substance P—mediated exaggerated peristalsis is studied in Mayflower organ baths using isolated segments of guinea pig ileum (Holzer et al., J. Pharmacol. Exp. Ther. 1995; 274: 322-328). The lumen of ileal segments is perfused with Krebs-Henseleit solution, and intraluminal pressures are continuously recorded. […] Any wave of peristaltic contractions results in a spike-like increase in intraluminal pressure and causes a partial emptying of fluid from the segment. Pressure thresholds triggering peristaltic contractions are used to quantify the effects of the compound of formula II.

[4] = test system: submucosalmucosa preparations of guinea pig colon; test: epithelial secretion (electrogenic chloride secretion), Ussing chamber short circuit currents; format: cell-based
Experimental: Epithelial secretion is tested in submucosalmucosa preparations of guinea pig colon. Using Ussing chamber techniques (Frieling et al., Naunyn Schmiedebergs Arch. Pharmacol. 1999; 359: 71-79) short circuit currents are recorded, and epithelial secretion (electrogenic chloride secretion) is stimulated via cumulative treatment with substance P (0.1 nM up to 10 μM); it triggers secretion (increases in short circuit currents) in a concentration-dependent fashion (pD2=7.50 ).

[5] = 3 mg/kg p.o. one hour prior to distension
[6] = 10 mg/kg p.o. one hour prior to distension

CN(C(=O)c1cc(C(F)(F)F)cc(C(F)(F)F)c1)[C@@H](/C=C/C(=O)N[C@@H]1CCCCNC1=O)Cc1ccc(Cl)c(Cl)c1 [compound of formula II, (4R)-4-[N′-methyl-N′-(3,5-bistrifluoromethylbenzoyl)amino]-4-(3,4-dichlorobenzyl)-but-2-enoic acid N-[(R)-epsilon-caprolactam-3-yl]-amide]
reversal of exaggerated behavioural pain responses upon colorectal balloon distension [1, 5]: statistically significant | reversal of exaggerated behavioural pain responses upon colorectal balloon distension [1, 6]: statistically significant | reversal of exaggerated behavioural pain responses upon colorectal balloon distension [2, 5]: statistically significant | reversal of exaggerated behavioural pain responses upon colorectal balloon distension [2, 6]: statistically significant | apparent pA2, competitive inhibition of substance P-evoked exaggerated peristalsis ([3]; 30 nM): 7.35 | apparent pA2, competitive inhibition of substance P-evoked exaggerated peristalsis ([3]; 100 nM): 7.23 | pA2 (Schild plot analysis), competitive inhibition of substance P-induced electrogenic chloride secretion ([4]; 30 nM, 100 nM and 300 nM): 7.94

substance P: agonist applied cumulatively to evoke exaggerated peristalsis and epithelial chloride secretion (RPKPQQFFGLM; ends and bridges not checked; UniProt P20366 58-68, looked up) [reference compound]
pD2, lowering of pressure thresholds triggering peristaltic contractions ([3]; cumulative application 1 nM up to 30 μM): 7.20 | pD2, stimulation of secretion (increases in short circuit currents) ([4]; cumulative treatment 0.1 nM up to 10 μM): 7.50
